Source: patent publication US20170027896A1, “METHODS AND COMPOSITIONS FOR THE TREATMENT OF VASCULAR MALFORMATION” (IFOM - FONDAZIONE ISTITUTO FIRC DI ONCOLOGIA MOLECOLARE, priority 2014, published 2017)
Entries after “also recorded” stand apart in the source; their conditions may differ.

B1: Dkk1: murine recombinant Dkk1, competitor of Wnt co-receptor Lrp5/6 (protein)
chain: TLNSVLINSNAIKNLPPPLGGAGGQPGSAVSVAPGVLYEGGNKYQTLDNYQPYPCAEDEECGSDEYCSSPSRGAAGVGGVQICLACRKRRKRCMRHAMCCPGNYCKNGICMPSDHSHFPRGEIEESIIENLGNDHNAAAGDGYPRRTTLTSKIYHTKGQEGSVCLRSSDCAAGLCCARHFWSKICKPVLKEGQVCTKHKRKGSHGLEIFQRCYCGEGLACRIQKDHHQASNSSRLHTCQRH
B2: b-catenin (other, mouse, UniProt Q02248 2-781, looked up)
chain: ATQADLMELDMAMEPDRKAAVSHWQQQSYLDSGIHSGATTTAPSLSGKGNPEEEDVDTSQVLYEWEQGFSQSFTQEQVADIDGQYAMTRAQRVRAAMFPETLDEGMQIPSTQFDAAHPTNVQRLAEPSQMLKHAVVNLINYQDDAELATRAIPELTKLLNDEDQVVVNKAAVMVHQLSKKEASRHAIMRSPQMVSAIVRTMQNTNDVETARCTAGTLHNLSHHREGLLAIFKSGGIPALVKMLGSPVDSVLFYAITTLHNLLLHQEGAKMAVRLAGGLQKMVALLNKTNVKFLAITTDCLQILAYGNQESKLIILASGGPQALVNIMRTYTYEKLLWTTSRVLKVLSVCSSNKPAIVEAGGMQALGLHLTDPSQRLVQNCLWTLRNLSDAATKQEGMEGLLGTLVQLLGSDDINVVTCAAGILSNLTCNNYKNKMMVCQVGGIEALVRTVLRAGDREDITEPAICALRHLTSRHQEAEMAQNAVRLHYGLPVVVKLLHPPSHWPLIKATVGLIRNLALCPANHAPLREQGAIPRLVQLLVRAHQDTQRRTSMGGTQQQFVEGVRMEEIVEGCTGALHILARDVHNRIVIRGLNTIPLFVQLLYSPIENIQRVAAGVLCELAQDKEAAEAIEAEGATAPLTELLHSRNEGVATYAAAVLFRMSEDKPQDYKKRLSVELTSSLFRTEPMAWNETADLGLDIGAQGEALGYRQDDPSYRSFHSGGYGQDALGMDPMMEHEMGGHHPGADYPVDGLPDLGHAQDLMDGLPPGDSNQLAWFDTDL
notes: Endogenous protein in total cell extracts, co-immunoprecipitated with VE-cadherin antibodies; also called beta-catenin; β-catenin
B3: VE-cadherin (other, mouse, UniProt P55284 46-784, looked up)
chain: DWIWNQMHIDEEKNESLPHYVGKIKSNVNRQNAKYVLQGEFAGKIFGVDANTGNVLAYERLDREKVSEYFLTALIVDKNTNKNLEQPSSFTVKVHDINDNWPVFSHQVFNASVPEMSAIGTSVIRVTAVDADDPTVAGHATVLYQIVKGNEYFSIDNSGLIFTKIKNLDREKQAEYKIVVETQDALGLRGESGTATVMIRLEDINDNFPVFTQSTYTFSVPEDIRVGKPLGFLTVVDPDEPQNRMTKYSIMQGEYRDTFTIETDPKRNEGIIKPTKSLDYEVIQQYTFYIEATDPTIRYEYLSSTSGKNKAMVTINVLDVDEPPVFQRHFYHFKLPENQKKPLIGTVVAKDPDKAQRSIGYSIRKTSDRGQFFRITKQGNIYNEKELDRETYAWYNLTVEANELDSRGNPVGKESIVQVYIEVLDENDNPPEFAQPYEPKVCENAAQGKLVVQISATDKDVVPVNPKFKFALKNEDSNFTLINNHDNTANITVKYGQFNREHAKFHYLPVLISDNGVPSLTGTSTLTVGVCKCNEQGEFTFCEEMAAQAGVSIQALVAIFLCILTITVITLLIILRRRIRKQAHAHSKSALEIHEQLVTYDEEGGGEMDTTSYDVSVLNSVRGGSTKPLRSTMDARPAVYTQVQKPPRLAPGLHGGPREMATMIDVKKEEADNDGGGPPYDTLHIYGYEGAESIAESLSSLSTNSSDSDIDYDFLNDWGPRFKMLAELYGSDPQEELII
notes: Endogenous protein immunoprecipitated from endothelial cell extracts with VE-cadherin antibodies (IP: VE); also called Cdh5

Columns and labels:
[1] = system: CCM3-knockout (KO) endothelial cells; test: Axin2 and S100a4 transcription in un-stimulated CCM3-knockout endothelial cells treated with Wnt pathway inhibitors; type: cell-based, mouse; details: 48 h, IWP2, IWP12 0.5, 2, 5 DM, Dkk1 0.5 uM
Experimental: (§1) Drugs were added to confluent cells for 48 h before the indicated assays. Final concentrations for IWP2 and IWP12, both from Sigma-Aldrich, were: 0.5, 2, 5 DM. Drugs were dissolved in DMSO, control treatment (Vehicle) was 0.1% DMSO final concentration, as for drug treatment. Murine recombinant Dkk1 (R&D) was 0.5 DM on cells.
(§2) RNA extraction was performed with RNeasy kits (74106; […]). The RNA (1 μg) was reverse transcribed with random hexamers (High Capacity cDNA Archive kits; Applied Biosystems). The cDNA was amplified with TaqMan gene expression assays (Applied Biosystems) using a 7900 HT thermocycler (ABI/Prism). For each sample, the expression levels were determined with the comparative threshold cycle (Ct) method, and normalized to the housekeeping genes encoding 18S and glyceraldehyde-3-phosphate dehydrogenase (GAPDH). For amplification, the following probes (Applied Biosystems) that have been validated to recognize the mouse transcripts in rtPCR were used: Axin2, Nkd1, Lef1, ccnd1, cMyc-Klf4, Ly6a, S100a4, Id1, Cdh2, Acta2, CD44. The probes to identify the CCM3 mRNA transcript were custom designed, as: forward, […] (SEQ ID No. 12); reverse, GCTCTGGCCGCTCAATCA (SEQ ID No. 13); reporter sequence, […] (SEQ ID No. 14).

[2] = system: CCM3-knockout endothelial cell line; test: rtPCR of b-catenin target gene and progenitor/EndMT markers in CCM3-knockout endothelial cell line; type: cell-based, mouse; details: 48 h; 135 mM sulindac sulfide, 125 mM sulindac sulfone, 200 mM silibinin, 250 mM salinomycin
Experimental: In some experiments, endothelial cell lines from the lungs of CCM3-flox/flox mice (8-10 weeks old) were immortalized in culture through retroviral expression of polyoma middle T gene^60. […] These cells were then maintained in culture for up to 25 passages without detectable changes in the effects of this CCM3 ablation.
Drugs were added to confluent cells for 48 h before the indicated assays. The final concentrations used were: […] (all from Sigma-Aldrich). As all of these were dissolved in DMSO, control treatment (vehicle) was 0.1% DMSO final concentration, as for drug treatment.
as §2

[3] = system: wild-type endothelial cells; test: Wnt3a stimulation of stem-cell/EndMT marker expression in wild-type endothelial cells; type: cell-based, mouse; details: acute stimulation (48 h); 5 ng/ml
Experimental: as §1, §2

[4] = system: Wnt3a-induced stimulation of Axin2; test: Wnt3a-induced stimulation of Axin2 in wild-type and CCM3-knockout endothelial cell lines; type: cell-based, mouse; details: Dkk1 0.5 uM
Experimental: as §1, §2

[5] = target: B3; test: co-immunoprecipitation with VE-cadherin antibodies and Western blot, bands quantified with ImageJ, mean of three experiments; vehicle-KO versus vehicle-WT
Excerpt: Active b-catenin and VE-cadherin were lost from cell-cell contacts (adherens junctions) in these CCM3-knockout endothelial cells (top main panels, XY axis; small lower panels, Z projection along X axis). The active b-catenin (KO vehicle, arrowheads) is concentrated into the nucleus (see corresponding arrowheads in DAPI stainings) (right panels). Treatment with sulindac sulfide restored the distribution of active b-catenin to the adherens junctions (right panels, sulindac sulfide, arrowheads, and small lower right panels, sulindac sulfide, small arrowheads, for distribution along Z axis) and co-localization of active b-catenin and VE-cadherin is observed (arrowheads). […] Podocalyxin is re-localized from the apical surface (left panels, WT, arrows) to be ectopically distributed on the basal side with CCM3 knockout (right panel, vehicle, arrowheads), as it has been reported for CCM1 knockout⁴⁶. Nuclei are outlined by white lines (DAPI). Sulindac sulfide re-establishes the correct apical distribution of podocalyxin (right panel, sulindac sulfide, arrows). Scale bar, […]. c. Representative Western blotting (top) and quantification (bottom) of the effects of sulindac sulfide on the co-immunoprecipitation complex of b-catenin and VE-cadherin. […] The quantification of the bands from the Western blotting was assessed as the means of three independent experiments, using ImageJ. d.

[6] = target: B2; test: co-immunoprecipitation with VE-cadherin antibodies and Western blot, murine endothelial cell line extracts

Molecule: Cc1ccc2nc(NC(=O)CSc3nc4c(c(=O)n3-c3ccccc3)SCC4)sc2c1 [IWP2]
- b-catenin-driven activation of Axin2 and S100a4 transcription [1]: not inhibited; also recorded: did not inhibit

Molecule: CC[C@@H](C(=O)[C@@H](C)[C@@H](O)[C@H](C)[C@@H]1O[C@@H]([C@@H](CC)C(=O)O)CC[C@@H]1C)[C@H]1O[C@]2(C=C[C@@H](O)[C@]3(CC[C@@](C)([C@H]4CC[C@](O)(CC)[C@H](C)O4)O3)O2)[C@H](C)C[C@@H]1C [salinomycin]
- inhibition of transcription of Axin2, Klf4 and S100a4 (rtPCR) [2]: significantly reduced only Axin2 and S100a4

Molecule: Cc1ccc2nc(NC(=O)CSc3nc4c(c(=O)n3C)SC(C)C4)sc2c1 (centres unmarked) [IWP12]
- b-catenin-driven activation of Axin2 and S100a4 transcription [1]: not inhibited; also recorded: did not inhibit

Molecule: Wnt3a
- induction of expression of stem-cell/EndMT markers [3]: cannot induce; also recorded: did not induce

Molecule: B1
- Wnt3a-induced stimulation of Axin2 [4]: effectively inhibited
- b-catenin-driven activation of Axin2 and S100a4 transcription [1]: not inhibited; also recorded: did not inhibit

Molecule: B2
- reduction of the b-catenin/VE-cadherin co-immunoprecipitation ratio in CCM3-knockout versus wild-type cells [5]: 35%

Molecule: B3
- binding result [6]: binds
